Drawing on PubChem BioAssay (NCI), this text covers TGI for 10 compounds.

The term TGI denotes the concentration giving total growth inhibition.

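Compound exposure: 48 hours, 5 concentrations, 96-well plates. TGI: concentration producing complete growth inhibition.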 A value given as a limit tells only on which side of the number the result lay.

Test systems include OVCAR-4 ovarian; CAKI-1 renal; HT29 colon; UACC-257 melanoma; SK-MEL-2 melanoma; SNB-75 CNS; HOP-92 NSCLC; SF-295 CNS; A498 renal; DU-145 prostate; NCI-H23 lung.
What all share (test): DTP human tumour cell line panel, 48 h

For the compound `CC(=O)N1N=C(c2ccc3ccccc3c2O)CC1c1ccc(N(C)C)cc1` (stereo not given), the total growth inhibition concentration (TGI) with OVCAR-4 ovarian, in the test with CAKI-1 renal, in the test on HT29 colon, with UACC-257 melanoma, in the test with SK-MEL-2 melanoma and with SNB-75 CNS was over 100 µM throughout. Also, the TGI in the test on HOP-92 NSCLC, in the test with SF-295 CNS, in the test with A498 renal, with DU-145 prostate and in the test with NCI-H23 lung was over 100 µM in each case.
Turning to `COC(=O)/C(C#N)=C/c1cc(C(C)(C)C)c(O)c(C(C)(C)C)c1`, the concentration for total growth inhibition (TGI) with OVCAR-4 ovarian is over 51.2 µM; in the test on CAKI-1 renal, over 27.4 µM; with HT29 colon, 12.1 µM; in the test with UACC-257 melanoma, 6.72 µM; in the test with SK-MEL-2 melanoma, 4.92 µM; with SNB-75 CNS it was 17.1 µM. Also, the total growth inhibition concentration (TGI) is 12.4 µM with HOP-92 NSCLC; 6.74 µM in the test on SF-295 CNS; 8.37 µM in the test with A498 renal; over 100 µM in the test with DU-145 prostate; 12.5 µM with NCI-H23 lung.
As for `O=C1c2ccccc2C(=O)c2sc(Nc3ccc([N+](=O)[O-])cc3)nc21`, the total growth inhibition concentration (TGI) with OVCAR-4 ovarian came out at 11 µM; in the test on CAKI-1 renal it was 12 µM; in the test on HT29 colon, 57.7 µM; in the test with UACC-257 melanoma, 11.7 µM; with SK-MEL-2 melanoma, 34.1 µM; in the test with SNB-75 CNS, 21.1 µM. For the same compound, the total growth inhibition concentration (TGI) in the test with HOP-92 NSCLC came out at 28.6 µM; with SF-295 CNS, 24.7 µM; in the test with A498 renal it was 34.8 µM; with DU-145 prostate, 33.5 µM; in the test on NCI-H23 lung, 9.77 µM.
For the compound `CC1N=C(c2ccccc2)OC1=O` (stereo not given), the TGI in the test on OVCAR-4 ovarian, in the test on CAKI-1 renal, in the test on HT29 colon, in the test with UACC-257 melanoma, with SK-MEL-2 melanoma and with SNB-75 CNS was over 100 µM in each case. Also, the total growth inhibition concentration (TGI) in the test with HOP-92 NSCLC, with SF-295 CNS, in the test on A498 renal, in the test on DU-145 prostate and with NCI-H23 lung was over 100 µM each time.
On to `CCOC(=O)c1nc2cc(F)cc(F)c2[nH]c1=O`, for which the TGI in the test with OVCAR-4 ovarian, with CAKI-1 renal, in the test on HT29 colon, in the test on UACC-257 melanoma, with SK-MEL-2 melanoma and in the test on SNB-75 CNS was over 100 µM throughout. The concentration for total growth inhibition (TGI) in the test with HOP-92 NSCLC, with SF-295 CNS, in the test on A498 renal, in the test with DU-145 prostate and with NCI-H23 lung was over 100 µM throughout.
On to `Cc1ccc(O)c(C(c2cc(C)ccc2O)c2cc([N+](=O)[O-])ccc2O)c1`, for which the TGI worked out at 28.3 µM in the test with OVCAR-4 ovarian; 24.8 µM in the test on CAKI-1 renal; 38.3 µM in the test on HT29 colon; 37.6 µM in the test with UACC-257 melanoma; 28.2 µM in the test on SK-MEL-2 melanoma; 21.2 µM in the test on SNB-75 CNS. Moreover, the concentration for total growth inhibition (TGI) with HOP-92 NSCLC was found to be 38.9 µM; in the test with SF-295 CNS it was 36.9 µM; with A498 renal, 39.5 µM; in the test on DU-145 prostate, 50.3 µM; in the test with NCI-H23 lung it was 28.9 µM.
On to `COc1ccc(C2=NN(C(=O)c3ccc(Cl)cc3)C(O)(c3cc(F)c(Cl)cc3Cl)C2)cc1` (stereo not given), for which the TGI with OVCAR-4 ovarian, in the test with CAKI-1 renal, in the test on HT29 colon, in the test on UACC-257 melanoma, in the test with SK-MEL-2 melanoma and in the test with SNB-75 CNS was over 100 µM each time. The concentration for total growth inhibition (TGI) in the test with HOP-92 NSCLC, with SF-295 CNS, in the test with A498 renal, in the test on DU-145 prostate and in the test with NCI-H23 lung was over 100 µM each time.
Take `NC(=O)NC(=O)c1cccc(NC(=O)CCl)c1`: the TGI was 25.7 µM in the test on OVCAR-4 ovarian; 6 µM in the test with CAKI-1 renal; 7.37 µM in the test on HT29 colon; 13.6 µM with UACC-257 melanoma; 15.1 µM with SK-MEL-2 melanoma; 7.06 µM in the test with SNB-75 CNS. Moreover, the total growth inhibition concentration (TGI) with HOP-92 NSCLC worked out at 15.2 µM; with SF-295 CNS, 7.71 µM; with A498 renal, 6.39 µM; with DU-145 prostate, 5.42 µM; with NCI-H23 lung, 8.14 µM.
As to `Cc1cnc2[nH]c(-c3ccc(Cl)cc3)cc(=O)c2c1`, the TGI is over 100 µM in the test on OVCAR-4 ovarian; over 55.6 µM with CAKI-1 renal; over 39.1 µM with HT29 colon; over 100 µM in the test on UACC-257 melanoma; over 100 µM with SK-MEL-2 melanoma; over 100 µM in the test on SNB-75 CNS. Besides, the concentration for total growth inhibition (TGI) is over 100 µM in the test with HOP-92 NSCLC; 23 µM in the test on SF-295 CNS; over 100 µM in the test on A498 renal; over 69.8 µM in the test on DU-145 prostate; over 100 µM with NCI-H23 lung.
With `COC(=O)CNC(=O)CSc1nnc(COc2ccc(Cl)cc2)n1-c1ccccc1`, the total growth inhibition concentration (TGI) is over 100 µM in the test with OVCAR-4 ovarian; 32.2 µM in the test on CAKI-1 renal; over 100 µM in the test on HT29 colon; 75.8 µM with UACC-257 melanoma; 50.7 µM with SK-MEL-2 melanoma; 35.5 µM in the test on SNB-75 CNS. In addition, the concentration for total growth inhibition (TGI) with HOP-92 NSCLC was over 100 µM; in the test with SF-295 CNS, over 100 µM; in the test on A498 renal, over 100 µM; in the test with DU-145 prostate, 33.6 µM; with NCI-H23 lung, over 100 µM.
